US20080009418A1, “Selective Inhibitors” (Alchemia LTD., priority 2004, published 2008)

Key:
Human δ-opioid (DOP) = target: T1, Human δ-opioid (DOP) (Homo sapiens, UniProt P41143); experiment: Radioligand binding, human δ-opioid (DOP) membranes, FlashPlate, [3H]-Bremazocine; conditions: compound at 10 μM; for A1 radioligand binding inhibition: human δ-opioid (DOP) membranes
T1 construct: purchased Perkin Elmer Biosignal
Summary of the method: (§1)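 Cloned human receptor membranes were coated onto FlashPlate wells and incubated with radioligand and compound (added from a 0.5 mM DMSO daughter plate) for 1 hour at room temperature in the dark. Scintillation counting gave percent inhibition, with DMSO defining total and reference ligand defining non-specific binding.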

Human κ-Opioid (KOP) = target: T2, Human κ-Opioid (KOP) (Homo sapiens, UniProt P41145); experiment: Radioligand binding, human κ-opioid (KOP) membranes, filtration, [3H]-Diprenorphine; conditions: compound at 10 μM; for A2 radioligand binding inhibition: human κ-opioid (KOP) membranes
T2 construct: purchased Perkin Elmer Biosignal
Summary of the method: (§2)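 Membranes from cloned human receptors were incubated with compound and radioligand for 1 hour at room temperature. Bound ligand was collected on 0.3% PEI-soaked filters, washed with cold 50 mM Tris-HCl pH 7.4, and counted by scintillation. Percent inhibition was computed against DMSO totals and reference-ligand nonspecific wells.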

Human Melanocortin (MC3) = target: T3, Human Melanocortin (MC3) (Homo sapiens, UniProt P41968); experiment: Radioligand binding, human melanocortin MC3 membranes, FlashPlate, [125I]-NDP-αMSH; conditions: compound at 10 μM; for A3 radioligand binding inhibition: human melanocortin MC3 membranes
T3 construct: purchased Perkin Elmer Biosignal
Summary of the method: as §1

Human Melanocortin (MC4) = target: T4, Human Melanocortin (MC4) (Homo sapiens, UniProt P32245); experiment: Radioligand binding, human melanocortin MC4 membranes, FlashPlate, [125I]-NDP-αMSH; conditions: compound at 10 μM; for A4 radioligand binding inhibition: human melanocortin MC4 membranes
T4 construct: purchased Perkin Elmer Biosignal
Summary of the method: as §1

Human melanocortin (MC5) = target: T5, Human melanocortin (MC5) (Homo sapiens, UniProt P33032); experiment: Radioligand binding, human melanocortin MC5 membranes, FlashPlate, [125I]-NDP-αMSH; conditions: compound at 10 μM; for A5 radioligand binding inhibition: human melanocortin MC5 membranes
T5 construct: purchased Perkin Elmer Biosignal
Summary of the method: as §1

[1] = target: T6, Human melanin-concentrating hormone (MCH1) (Homo sapiens, UniProt Q99705); experiment: Radioligand binding, human melanin-concentrating hormone MCH1 membranes, FlashPlate, [125I]-S36057; conditions: compound at 10 μM; for A6: inhibition of radioligand binding, human melanin-concentrating hormone (MCH1): [125I]-S36057; for A6 radioligand binding inhibition: human MCH1 membranes
T6 construct: purchased Perkin Elmer Biosignal
Summary of the method: as §1

Human μ-opioid (MOP) = target: T7, Human μ-opioid (MOP) (Homo sapiens, UniProt P35372); experiment: Radioligand binding, human μ-opioid (MOP) membranes, FlashPlate, [3H]-Naloxone; conditions: compound at 10 μM; for A7 radioligand binding inhibition: human μ-opioid (MOP) membranes
T7 construct: purchased Perkin Elmer Biosignal
Summary of the method: as §1

Human neurokinin (NK1) = target: T8, Human neurokinin (NK1) (Homo sapiens, UniProt P25103); experiment: Radioligand binding, human neurokinin NK1 membranes, filtration, [125I]-Substance P; conditions: compound at 10 μM; for A8 radioligand binding inhibition: human neurokinin NK1 membranes
T8 construct: purchased Perkin Elmer Biosignal
Summary of the method: as §2

[2] = target: T9, Human neuropeptide Y (NPY-Y1) (Homo sapiens, UniProt P25929); experiment: Radioligand binding, human neuropeptide Y NPY-Y1 membranes, FlashPlate, [125I]-PYY; conditions: compound at 10 μM
T9 construct: purchased Perkin Elmer Biosignal
T9 sequence (P25929 1-384): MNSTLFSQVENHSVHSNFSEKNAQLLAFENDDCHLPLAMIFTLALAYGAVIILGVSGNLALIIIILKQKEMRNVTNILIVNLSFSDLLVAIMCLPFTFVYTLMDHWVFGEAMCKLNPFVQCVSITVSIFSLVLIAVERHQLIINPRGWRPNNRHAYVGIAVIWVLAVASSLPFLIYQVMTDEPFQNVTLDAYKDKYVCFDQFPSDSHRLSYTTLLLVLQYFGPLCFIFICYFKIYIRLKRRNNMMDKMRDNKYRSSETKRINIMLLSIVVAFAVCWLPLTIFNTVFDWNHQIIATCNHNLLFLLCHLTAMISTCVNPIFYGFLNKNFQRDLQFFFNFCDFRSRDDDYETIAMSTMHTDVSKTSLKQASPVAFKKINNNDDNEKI
Summary of the method: as §1

Human opioid (ORL1) = target: T10, Human opioid (ORL1) (Homo sapiens, UniProt P41146); experiment: Radioligand binding, human opioid ORL1 membranes, FlashPlate, [125I]-Nociceptin; conditions: compound at 10 μM; for A10: inhibition of radioligand binding, human opioid (ORL1): 10 µM
T10 construct: purchased Perkin Elmer Biosignal
Summary of the method: as §1

Mouse urotensin (mUR2) = target: T11, Mouse urotensin (mUR2) (Mus musculus, UniProt Q8VIH9); experiment: Radioligand binding, mouse urotensin mUR2 membranes, FlashPlate, [125I]-Urotensin II; conditions: compound at 10 μM; for A11 radioligand binding inhibition: mouse urotensin mUR2 membranes
T11 construct: purchased Perkin Elmer Biosignal
T11 sequence (Q8VIH9 1-385): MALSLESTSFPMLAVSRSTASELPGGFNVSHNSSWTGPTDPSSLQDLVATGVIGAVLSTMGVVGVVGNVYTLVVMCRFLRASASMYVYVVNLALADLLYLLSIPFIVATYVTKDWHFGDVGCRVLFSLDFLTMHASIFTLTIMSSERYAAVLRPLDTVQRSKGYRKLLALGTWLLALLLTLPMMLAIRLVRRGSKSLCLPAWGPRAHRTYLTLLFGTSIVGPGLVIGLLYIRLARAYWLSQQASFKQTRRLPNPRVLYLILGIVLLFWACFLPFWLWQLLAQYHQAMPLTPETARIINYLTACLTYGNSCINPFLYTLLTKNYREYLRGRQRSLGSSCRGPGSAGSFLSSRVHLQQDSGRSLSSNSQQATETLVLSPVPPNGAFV
Summary of the method: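 Cloned mouse urotensin (mUR2) receptor membranes from Perkin Elmer Biosignal were immobilized in FlashPlate microplates using a proprietary coating. Each well got 19.5 μl buffer, then 0.5 μl of DMSO, reference ligand, or compound. Adding 5 μl of [125I]-Urotensin II, diluted to 5× final concentration in binding buffer, started binding. Plates were sealed with TopSeal-A and incubated 1 hour at room temperature in the dark. Wells were counted for 30 seconds each on a TopCount after a 60-second delay, and percentage inhibition was calculated.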

T3 sequence (P41968 whole entry): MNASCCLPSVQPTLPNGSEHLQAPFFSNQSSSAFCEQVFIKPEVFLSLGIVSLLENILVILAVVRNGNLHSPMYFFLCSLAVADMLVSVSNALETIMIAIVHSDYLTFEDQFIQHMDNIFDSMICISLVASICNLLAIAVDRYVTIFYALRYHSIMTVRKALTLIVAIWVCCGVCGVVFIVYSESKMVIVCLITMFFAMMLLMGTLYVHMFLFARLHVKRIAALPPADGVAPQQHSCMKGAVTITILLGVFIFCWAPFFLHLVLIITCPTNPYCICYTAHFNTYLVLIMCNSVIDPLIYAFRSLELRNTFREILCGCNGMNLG
T5 sequence (P33032 whole entry): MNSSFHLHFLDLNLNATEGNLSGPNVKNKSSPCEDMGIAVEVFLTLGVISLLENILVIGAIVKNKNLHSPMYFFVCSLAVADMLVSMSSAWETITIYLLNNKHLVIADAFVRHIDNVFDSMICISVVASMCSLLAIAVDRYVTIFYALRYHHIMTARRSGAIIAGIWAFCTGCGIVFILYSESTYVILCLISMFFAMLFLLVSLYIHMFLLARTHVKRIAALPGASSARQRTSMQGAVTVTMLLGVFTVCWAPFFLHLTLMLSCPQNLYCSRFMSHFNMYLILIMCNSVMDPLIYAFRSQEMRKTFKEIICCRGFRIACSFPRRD
T6 sequence (Q99705 whole entry): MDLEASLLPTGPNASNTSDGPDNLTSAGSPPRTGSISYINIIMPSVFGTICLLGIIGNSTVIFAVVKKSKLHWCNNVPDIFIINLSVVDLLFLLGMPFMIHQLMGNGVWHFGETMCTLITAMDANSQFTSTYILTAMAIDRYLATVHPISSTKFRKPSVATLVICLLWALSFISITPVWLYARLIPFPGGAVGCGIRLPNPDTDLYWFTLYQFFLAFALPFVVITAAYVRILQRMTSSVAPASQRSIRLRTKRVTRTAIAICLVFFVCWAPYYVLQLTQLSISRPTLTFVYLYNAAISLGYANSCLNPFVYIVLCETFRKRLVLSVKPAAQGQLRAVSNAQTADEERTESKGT
T4 sequence (P32245 whole entry): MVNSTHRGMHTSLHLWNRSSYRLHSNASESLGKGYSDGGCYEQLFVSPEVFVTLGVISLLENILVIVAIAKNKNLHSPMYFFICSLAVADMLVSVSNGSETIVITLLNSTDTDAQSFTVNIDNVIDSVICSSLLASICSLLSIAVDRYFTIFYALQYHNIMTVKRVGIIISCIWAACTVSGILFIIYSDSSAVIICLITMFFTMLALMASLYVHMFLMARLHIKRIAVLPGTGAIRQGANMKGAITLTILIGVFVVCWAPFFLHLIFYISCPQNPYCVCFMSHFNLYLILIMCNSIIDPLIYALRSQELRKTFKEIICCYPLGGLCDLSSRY
T8 sequence (P25103 whole entry): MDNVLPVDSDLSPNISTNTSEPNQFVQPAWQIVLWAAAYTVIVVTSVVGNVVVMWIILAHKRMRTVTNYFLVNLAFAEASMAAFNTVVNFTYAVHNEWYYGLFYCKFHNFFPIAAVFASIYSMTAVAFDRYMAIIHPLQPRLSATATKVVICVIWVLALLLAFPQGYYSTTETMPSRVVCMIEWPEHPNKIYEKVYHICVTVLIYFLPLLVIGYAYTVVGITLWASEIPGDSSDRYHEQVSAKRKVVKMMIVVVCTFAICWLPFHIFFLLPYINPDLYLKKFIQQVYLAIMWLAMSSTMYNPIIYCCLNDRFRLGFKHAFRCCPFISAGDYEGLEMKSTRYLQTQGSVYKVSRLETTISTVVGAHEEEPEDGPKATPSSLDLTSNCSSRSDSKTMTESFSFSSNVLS
T7 sequence (P35372 whole entry): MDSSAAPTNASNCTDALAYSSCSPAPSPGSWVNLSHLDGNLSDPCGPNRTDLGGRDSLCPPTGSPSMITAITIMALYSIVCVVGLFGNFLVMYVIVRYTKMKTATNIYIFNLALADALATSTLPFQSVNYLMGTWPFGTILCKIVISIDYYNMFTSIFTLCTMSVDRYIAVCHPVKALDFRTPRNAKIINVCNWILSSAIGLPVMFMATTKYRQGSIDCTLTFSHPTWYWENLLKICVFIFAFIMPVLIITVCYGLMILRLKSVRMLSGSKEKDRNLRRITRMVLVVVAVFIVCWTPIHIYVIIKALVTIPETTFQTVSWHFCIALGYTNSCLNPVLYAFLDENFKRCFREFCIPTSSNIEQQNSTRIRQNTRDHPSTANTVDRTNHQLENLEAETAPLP
T1 sequence (P41143 whole entry): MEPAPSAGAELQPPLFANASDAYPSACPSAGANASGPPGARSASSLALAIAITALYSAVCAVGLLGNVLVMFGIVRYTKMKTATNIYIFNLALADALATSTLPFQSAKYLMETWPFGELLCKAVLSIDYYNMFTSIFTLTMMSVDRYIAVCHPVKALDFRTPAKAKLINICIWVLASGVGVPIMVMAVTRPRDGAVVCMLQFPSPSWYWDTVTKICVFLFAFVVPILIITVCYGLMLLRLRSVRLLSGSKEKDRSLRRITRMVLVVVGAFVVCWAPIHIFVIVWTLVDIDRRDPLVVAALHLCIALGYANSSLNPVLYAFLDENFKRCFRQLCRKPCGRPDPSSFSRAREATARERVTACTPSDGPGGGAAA
T2 sequence (P41145 whole entry): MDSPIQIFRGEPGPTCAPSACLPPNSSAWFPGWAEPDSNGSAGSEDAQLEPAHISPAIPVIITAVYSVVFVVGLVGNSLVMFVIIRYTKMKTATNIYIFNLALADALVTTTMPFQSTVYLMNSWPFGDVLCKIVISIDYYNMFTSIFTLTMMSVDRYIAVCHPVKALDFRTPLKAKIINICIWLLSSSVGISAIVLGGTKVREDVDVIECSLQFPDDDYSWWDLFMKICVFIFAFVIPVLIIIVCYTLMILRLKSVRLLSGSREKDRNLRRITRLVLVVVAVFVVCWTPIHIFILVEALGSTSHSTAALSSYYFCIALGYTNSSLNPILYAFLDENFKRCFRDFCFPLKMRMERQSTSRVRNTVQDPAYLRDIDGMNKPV
T10 sequence (P41146 whole entry): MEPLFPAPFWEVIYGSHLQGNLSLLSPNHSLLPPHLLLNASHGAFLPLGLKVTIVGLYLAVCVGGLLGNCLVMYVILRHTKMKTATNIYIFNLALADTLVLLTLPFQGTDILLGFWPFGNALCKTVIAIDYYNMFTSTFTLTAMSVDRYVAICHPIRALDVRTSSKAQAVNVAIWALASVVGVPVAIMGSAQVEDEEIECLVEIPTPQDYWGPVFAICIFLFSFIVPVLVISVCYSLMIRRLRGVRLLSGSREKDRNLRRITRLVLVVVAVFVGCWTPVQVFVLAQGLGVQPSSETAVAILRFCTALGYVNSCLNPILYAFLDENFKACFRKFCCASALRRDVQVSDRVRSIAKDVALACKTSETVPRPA

| SMILES | A1: inhibition of radioligand binding, human δ-opioid (DOP) (Human δ-opioid (DOP); [3H]-Bremazocine) | A2: inhibition of radioligand binding, human κ-opioid (KOP) (Human κ-Opioid (KOP); [3H]-Diprenorphine) | A3: inhibition of radioligand binding, human melanocortin (MC3) (Human Melanocortin (MC3); [125I]-NDP-αMSH) | A5: inhibition of radioligand binding, human melanocortin (MC5) (Human melanocortin (MC5); [125I]-NDP-αMSH) | A6: inhibition of radioligand binding, human melanin-concentrating hormone (MCH1) [1] | A8: inhibition of radioligand binding, human neurokinin (NK1) (Human neurokinin (NK1); [125I]-Substance P) | A9: inhibition of radioligand binding, human neuropeptide Y (NPY-Y1) ([2]; [125I]-PYY) | A10: inhibition of radioligand binding, human opioid (ORL1) (Human opioid (ORL1); [125I]-Nociceptin) | A11: inhibition of radioligand binding, mouse urotensin (mUR2) (Mouse urotensin (mUR2); [125I]-Urotensin II) | A1 radioligand binding inhibition (Human δ-opioid (DOP)) | A2 radioligand binding inhibition (Human κ-Opioid (KOP)) | A3 radioligand binding inhibition (Human Melanocortin (MC3)) | A4 radioligand binding inhibition (Human Melanocortin (MC4)) | A5 radioligand binding inhibition (Human melanocortin (MC5)) | A6 radioligand binding inhibition [1] | A7 radioligand binding inhibition (Human μ-opioid (MOP)) | A8 radioligand binding inhibition (Human neurokinin (NK1)) | A9 radioligand binding inhibition ([2]; human NPY-Y1 membranes) | A10 radioligand binding inhibition (Human opioid (ORL1); human ORL1 membranes) | A11 radioligand binding inhibition (Mouse urotensin (mUR2)) | other results |
| --- | --- | --- | --- | --- | --- | --- | --- | --- | --- | --- | --- | --- | --- | --- | --- | --- | --- | --- | --- | --- | --- |
| NCCCC(=O)NC1C(OCc2ccc(Cl)cc2)OC(COCc2ccc(Cl)cc2)C(O)C1OCc1ccccc1 (single isomer, unassigned) [compound 506] | − (“−” indicates less than 50% inhibition at 10 μM) | − (“−” indicates less than 50% inhibition at 10 μM) | − (“−” indicates less than 50% inhibition at 10 μM) | + (“+” indicates greater than 50% inhibition at 10 μM) | − (“−” indicates less than 50% inhibition at 10 μM) | + (“+” indicates greater than 50% inhibition at 10 μM) | − (“−” indicates less than 50% inhibition at 10 μM) | + (“+” indicates greater than 50% inhibition at 10 μM) | − (“−” indicates less than 50% inhibition at 10 μM) | – | – | – | – | – | – | – | – | – | – | – | A4: inhibition of radioligand binding, human melanocortin (MC4) (Human Melanocortin (MC4); [125I]-NDP-αMSH): − (“−” indicates less than 50% inhibition at 10 μM); A7: inhibition of radioligand binding, human μ-opioid (MOP) (Human μ-opioid (MOP); [3H]-Naloxone, 10 µM): − (“−” indicates less than 50% inhibition at 10 μM) |
| COC[C@H]1OC(OCc2ccc(-c3ccccc3)cc2)[C@H](NC(=O)CNC(=N)N)[C@@H](OCc2ccc(-c3ccccc3)cc2)[C@@H]1O (stereo partly shown) [compound 1] | – | – | – | – | – | – | – | – | – | − (“−” indicates less than 50% inhibition at 10 μM) | − (“−” indicates less than 50% inhibition at 10 μM) | + (“+” indicates greater than 50% inhibition at 10 μM) | + (“+” indicates greater than 50% inhibition at 10 μM) | + (“+” indicates greater than 50% inhibition at 10 μM) | + (“+” indicates greater than 50% inhibition at 10 μM) | − (“−” indicates less than 50% inhibition at 10 μM) | + (“+” indicates greater than 50% inhibition at 10 μM) | − (“−” indicates less than 50% inhibition at 10 μM) | − (“−” indicates less than 50% inhibition at 10 μM) | − (“−” indicates less than 50% inhibition at 10 μM) | – |
| NCCCC(=O)NC1C(OCc2ccc(Cl)cc2)OC(COCc2ccccc2)C(O)C1OCc1ccc2ccccc2c1 (single isomer, unassigned) [compound 498] | − (“−” indicates less than 50% inhibition at 10 μM) | − (“−” indicates less than 50% inhibition at 10 μM) | − (“−” indicates less than 50% inhibition at 10 μM) | + (“+” indicates greater than 50% inhibition at 10 μM) | − (“−” indicates less than 50% inhibition at 10 μM) | + (“+” indicates greater than 50% inhibition at 10 μM) | − (“−” indicates less than 50% inhibition at 10 μM) | + (“+” indicates greater than 50% inhibition at 10 μM) | − (“−” indicates less than 50% inhibition at 10 μM) | – | – | – | – | – | – | – | – | – | – | – | A4: inhibition of radioligand binding, human melanocortin (MC4) (Human Melanocortin (MC4); [125I]-NDP-αMSH, 10 µM): + (“+” indicates greater than 50% inhibition at 10 μM); A7: inhibition of radioligand binding, human μ-opioid (MOP) (Human μ-opioid (MOP); [3H]-Naloxone): − (“−” indicates less than 50% inhibition at 10 μM) |
| COC[C@H]1OC(OCc2ccc(-c3ccccc3)cc2)[C@H](NC(=O)CCCNC(=N)N)[C@@H](OCc2ccc3ccccc3c2)[C@@H]1O (stereo partly shown) [compound 6] | – | – | – | – | – | – | – | – | – | − (“−” indicates less than 50% inhibition at 10 μM) | + (“+” indicates greater than 50% inhibition at 10 μM) | − (“−” indicates less than 50% inhibition at 10 μM) | − (“−” indicates less than 50% inhibition at 10 μM) | + (“+” indicates greater than 50% inhibition at 10 μM) | + (“+” indicates greater than 50% inhibition at 10 μM) | + (“+” indicates greater than 50% inhibition at 10 μM) | + (“+” indicates greater than 50% inhibition at 10 μM) | − (“−” indicates less than 50% inhibition at 10 μM) | − (“−” indicates less than 50% inhibition at 10 μM) | − (“−” indicates less than 50% inhibition at 10 μM) | – |
| N=C(N)NCCC(=O)NC1C(OCc2ccc(Cl)cc2)OC(COCc2ccc3ccccc3c2)C(O)C1OCc1ccc(Cl)cc1 (stereo not shown) [compound 426] | – | – | – | – | – | – | – | – | – | – | – | – | – | – | – | – | – | – | – | – | A1: inhibition of radioligand binding (Human δ-opioid (DOP); [3H]-Bremazocine, human DOP membranes): − (“−” indicates less than 50% inhibition at 10 μM); A2: inhibition of radioligand binding (Human κ-Opioid (KOP); [3H]-Diprenorphine, human KOP membranes): − (“−” indicates less than 50% inhibition at 10 μM); A3: inhibition of radioligand binding (Human Melanocortin (MC3); [125I]-NDP-αMSH, human MC3 membranes): + (“+” indicates greater than 50% inhibition at 10 μM); A4: inhibition of radioligand binding (Human Melanocortin (MC4); [125I]-NDP-αMSH, human MC4 membranes): + (“+” indicates greater than 50% inhibition at 10 μM); A5: inhibition of radioligand binding (Human melanocortin (MC5); [125I]-NDP-αMSH, human MC5 membranes): + (“+” indicates greater than 50% inhibition at 10 μM); A6: inhibition of radioligand binding ([1]; [125I]-S36057, human MCH1 membranes): + (“+” indicates greater than 50% inhibition at 10 μM); A7: inhibition of radioligand binding (Human μ-opioid (MOP); [3H]-Naloxone, human MOP membranes): − (“−” indicates less than 50% inhibition at 10 μM); A8: inhibition of radioligand binding (Human neurokinin (NK1); [125I]-Substance P, human NK1 membranes): + (“+” indicates greater than 50% inhibition at 10 μM); A9: inhibition of radioligand binding ([2]; [125I]-PYY, human NPY-Y1 membranes): + (“+” indicates greater than 50% inhibition at 10 μM); A10: inhibition of radioligand binding (Human opioid (ORL1); [125I]-Nociceptin, human ORL1 membranes): + (“+” indicates greater than 50% inhibition at 10 μM); A11: inhibition of radioligand binding (Mouse urotensin (mUR2); [125I]-Urotensin II, mouse mUR2 membranes): − (“−” indicates less than 50% inhibition at 10 μM) |
